According to ChEMBL document CHEMBL1201862, “PubChem BioAssay data set” (2004):
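Each compound was tested at five concentrations against cells in 96-well plates for 48 hours. GI50 = concentration required for 50% inhibition of growth.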 Active and inactive are the calls of the source. Cut-off read from the data, not from the text of the source: active = GI50 up to about 1.1 µM and inactive = higher.

Columns and labels:
Assay in all cases: NCI tumour cell line growth inhibition, 48 h
[1] = system: SF-539
[2] = system: HOP-62
[3] = system: SF-268
[4] = system: RPMI-8226
[5] = system: HCC 2998
[6] = system: OVCAR-3
[7] = system: RXF 393
[8] = system: SK-MEL-28
[9] = system: MDA-MB-435
[10] = system: TK-10
[11] = system: K562
[12] = system: LOX IMVI
[13] = system: A549
[14] = system: Hs-578T
[15] = system: IGROV-1
[16] = system: SN12C
[17] = system: NCI-H460
[18] = system: DU-145
[19] = system: SNB-75
[20] = system: NCI-H522

Measured: GI50

NCC(=O)Nc1ccc(Cl)cc1C(=O)c1ccc[nH]1
inactive: [1] > 32.8 µM | [2] > 94.2 µM | [3] 49 µM | [4] 5.57 µM | [5] 31.8 µM | [6] 40.9 µM | [7] > 82.2 µM | [8] > 93.5 µM | [9] 45.2 µM | [10] > 94.6 µM | [11] 10.5 µM | [12] 9.95 µM | [13] 63.1 µM | [14] > 67.5 µM | [15] > 48.4 µM | [16] > 36.3 µM | [17] 10.4 µM | [18] > 100 µM | [19] 38.5 µM | [20] 11.5 µM

COC(=O)c1c(O)ccc2c1c1c(n2Cc2ccc(Cl)cc2Cl)C(=O)c2ccccc2C1=O
inactive: [1] 14.4 µM | [2] 9.18 µM | [3] 10.1 µM | [4] 2.88 µM | [5] 3.48 µM | [6] 6.37 µM | [7] 4.09 µM | [8] 16.2 µM | [9] 7.91 µM | [10] 14.9 µM | [11] 5.9 µM | [12] 12.7 µM | [13] 5.62 µM | [14] 9.62 µM | [15] 11.2 µM | [16] 2.21 µM | [17] 3.27 µM | [18] 11.6 µM | [19] 17.9 µM | [20] 7.46 µM

CCNC(=S)NNC(=O)C12CC3CC(CC(C3)C1)C2
inactive: [1] > 100 µM | [2] > 100 µM | [3] > 100 µM | [4] > 100 µM | [5] > 100 µM | [6] > 100 µM | [7] > 100 µM | [8] > 100 µM | [9] > 100 µM | [10] > 100 µM | [11] > 100 µM | [12] > 100 µM | [13] > 100 µM | [14] > 100 µM | [15] > 100 µM | [16] > 100 µM | [17] > 100 µM | [18] > 100 µM | [19] 64.1 µM | [20] > 100 µM

N#Cc1c(N2CCCC2)ncn(Cc2ccccc2)c1=O
inactive: [1] > 100 µM | [2] > 100 µM | [3] > 100 µM | [4] > 100 µM | [5] > 100 µM | [6] > 100 µM | [7] > 100 µM | [8] > 100 µM | [9] > 100 µM | [10] > 100 µM | [11] > 100 µM | [12] > 100 µM | [13] > 100 µM | [14] > 100 µM | [15] > 100 µM | [16] > 100 µM | [17] > 100 µM | [18] > 100 µM | [19] > 100 µM | [20] > 100 µM

CCOC(=O)Cn1nnc2ccc(Nc3nc4ccccc4nc3C(=O)OCC)cc21
inactive: [1] 31.3 µM | [2] 38.3 µM | [3] 27.2 µM | [4] > 100 µM | [5] 87.3 µM | [6] > 100 µM | [7] 37.9 µM | [8] > 100 µM | [9] > 100 µM | [10] 45.1 µM | [11] > 100 µM | [12] > 100 µM | [13] > 100 µM | [14] 33.5 µM | [15] > 100 µM | [16] > 100 µM | [17] > 100 µM | [18] 74.1 µM | [19] 18.5 µM | [20] 39.7 µM

O=C(Oc1ccccc1)c1cc2cc(CCl)ccc2oc1=O
inactive: [1] 30.6 µM | [2] 26.5 µM | [3] 23.2 µM | [4] 33 µM | [5] 20.5 µM | [6] 29.1 µM | [7] 13.5 µM | [8] 13.3 µM | [9] 19.4 µM | [10] 17.5 µM | [11] 5.61 µM | [12] 49.4 µM | [13] 25.8 µM | [14] 16.9 µM | [15] 23.3 µM | [16] 23.1 µM | [17] 20.3 µM | [18] 27.7 µM | [19] 21.5 µM | [20] 6.17 µM

N#CC(c1cc2c(cc1Br)OCO2)N1CCOCC1 (stereo not given)
inactive: [1] 29.7 µM | [2] 44 µM | [3] 73.8 µM | [4] 20.3 µM | [5] > 100 µM | [6] 30.1 µM | [7] 19.9 µM | [8] > 100 µM | [9] 4.05 µM | [10] 90.8 µM | [11] 3.32 µM | [12] 24.5 µM | [13] > 100 µM | [14] 25.6 µM | [15] 58.1 µM | [16] 56.2 µM | [17] > 100 µM | [18] 48.5 µM | [19] 30.1 µM | [20] > 100 µM

Cn1c(=O)n2n(c1=O)C(S(=O)(=O)c1ccccc1)C2 (stereo not given)
inactive: [1] > 100 µM | [2] > 100 µM | [3] > 100 µM | [4] > 100 µM | [5] > 100 µM | [6] > 100 µM | [7] > 100 µM | [8] > 100 µM | [9] > 100 µM | [10] > 100 µM | [11] > 100 µM | [12] > 100 µM | [13] > 100 µM | [14] > 100 µM | [15] > 100 µM | [16] > 100 µM | [17] > 100 µM | [18] > 100 µM | [19] > 100 µM | [20] > 100 µM

CC1(C)O[C@@H]2[C@@H](COC(=O)c3ccccc3)C[C@@H](C#N)[C@@H]2O1
inactive: [1] > 100 µM | [2] > 100 µM | [3] > 100 µM | [4] > 100 µM | [5] > 100 µM | [6] > 100 µM | [7] > 100 µM | [8] > 100 µM | [9] > 100 µM | [10] > 100 µM | [11] > 100 µM | [12] > 100 µM | [13] > 100 µM | [14] 29.2 µM | [15] > 100 µM | [16] > 100 µM | [17] > 100 µM | [18] > 100 µM | [19] > 100 µM | [20] > 100 µM

CCN(CC)/[N+]([O-])=N/OCOC(C)=O
inactive: [1] > 100 µM | [2] > 100 µM | [3] > 100 µM | [4] > 100 µM | [5] > 100 µM | [6] > 100 µM | [7] > 100 µM | [8] > 100 µM | [9] > 100 µM | [10] > 100 µM | [11] > 100 µM | [12] > 100 µM | [13] > 100 µM | [14] > 100 µM | [15] > 100 µM | [16] > 100 µM | [17] > 100 µM | [18] > 100 µM | [19] > 100 µM | [20] > 100 µM

COc1ccc(CN2C(=O)CCC/C=C\[C@H]2CI)cc1
inactive: [1] 13.6 µM | [2] 16 µM | [3] 13.4 µM | [4] 6.97 µM | [5] 11.6 µM | [6] 11.6 µM | [7] 3.32 µM | [8] 12.6 µM | [9] 12.7 µM | [10] 12.5 µM | [11] 6.97 µM | [12] 17.6 µM | [13] 10 µM | [14] 14.2 µM | [15] 15.6 µM | [16] 14 µM | [17] 13.1 µM | [18] 13.3 µM | [19] 2.41 µM | [20] 12.7 µM
